Data published in patent US20220370440A1 (Lead Discovery Center GmbH, priority 2018, published 2022).

Tests used:
[1] = biological target: EGFR Exon 20 INSNPH Ba/F3 (Homo sapiens, UniProt P00533, DUP771-773, cells depend on it); test: EGFR Exon 20 INSNPH Ba/F3 CellTiter-Glo; assay type: cell-based; conditions: CellTiter-Glo, 72 h, read-out: EGFR Exon 20 INSNPH Ba/F3 CTG IC50
How it was run: (§1)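 Seed Ba/F3 cells; 24 h, 37 °C/5% CO2. Add cpds in DMSO, multiple concs; 72 h. CellTiter-Glo, 10 min RT, luminescence. IC50 by curve fit. Z′ ≥0.5 from DMSO vs 10 μM staurosporine.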

H1781 = H1781 CellTiter-Glo; assay type: cell-based; conditions: NCI-H1781; 72 h compound incubation; read-out: H1781 CTG IC50
How it was run: (§2)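 Seed cells; incubate 24 h at 37° C., 5% CO2; add compound in DMSO over a concentration range; incubate 72 h; add CellTiter-Glo reagent, stabilise 10 min at room temperature; read luminescence; fit IC50.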

EGFR T790ML858R = EGFR T790ML858R (Homo sapiens, UniProt P00533, L858R/T790M); test: EGFR T790ML858R Lance assay; assay type: biochemical
Sequence of EGFR T790ML858R (P00533 25-1210 T790M/L858R): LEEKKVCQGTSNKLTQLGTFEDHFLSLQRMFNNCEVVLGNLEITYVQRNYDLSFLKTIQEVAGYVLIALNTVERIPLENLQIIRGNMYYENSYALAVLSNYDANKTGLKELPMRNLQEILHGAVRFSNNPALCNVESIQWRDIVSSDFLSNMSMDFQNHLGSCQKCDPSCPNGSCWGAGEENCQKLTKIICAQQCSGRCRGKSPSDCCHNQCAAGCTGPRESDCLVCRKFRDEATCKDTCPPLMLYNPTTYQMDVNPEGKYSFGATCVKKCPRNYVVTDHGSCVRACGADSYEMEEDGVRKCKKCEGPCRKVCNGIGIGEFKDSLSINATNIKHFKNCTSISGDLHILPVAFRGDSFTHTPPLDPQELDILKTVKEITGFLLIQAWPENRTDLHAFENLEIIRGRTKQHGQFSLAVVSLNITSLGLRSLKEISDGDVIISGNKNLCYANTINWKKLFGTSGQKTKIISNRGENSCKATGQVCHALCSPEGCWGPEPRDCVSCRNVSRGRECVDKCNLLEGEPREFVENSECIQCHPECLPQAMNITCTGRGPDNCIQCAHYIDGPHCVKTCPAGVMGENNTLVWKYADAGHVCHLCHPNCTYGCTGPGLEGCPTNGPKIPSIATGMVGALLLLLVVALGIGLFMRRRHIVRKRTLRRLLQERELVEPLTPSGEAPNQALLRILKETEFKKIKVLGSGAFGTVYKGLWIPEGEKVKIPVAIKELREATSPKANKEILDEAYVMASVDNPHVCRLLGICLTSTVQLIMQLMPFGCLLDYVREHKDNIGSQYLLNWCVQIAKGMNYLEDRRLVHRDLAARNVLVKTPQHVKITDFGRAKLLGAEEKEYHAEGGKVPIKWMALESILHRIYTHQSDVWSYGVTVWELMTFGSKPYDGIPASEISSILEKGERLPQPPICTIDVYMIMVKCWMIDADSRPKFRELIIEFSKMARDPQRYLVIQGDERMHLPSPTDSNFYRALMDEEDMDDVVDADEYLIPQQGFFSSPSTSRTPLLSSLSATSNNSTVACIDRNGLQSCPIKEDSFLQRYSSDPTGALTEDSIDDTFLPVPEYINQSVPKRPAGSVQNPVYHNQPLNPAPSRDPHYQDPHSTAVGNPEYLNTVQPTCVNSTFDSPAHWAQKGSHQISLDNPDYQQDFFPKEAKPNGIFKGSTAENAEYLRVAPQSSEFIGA
Description: (§3) Inhibition is indicated as […] [nM] (“−”=not measured). Compounds having an activity designated as “A” provided an IC50≤100 nM; compounds having an activity designated as “B” provided an 100 nM<IC50≤500 nM; compounds having an activity designated as “C” provided an 500 nM<IC50≤1000 nM; compounds having an activity designated as “D” provided an 1000 nM<IC50≤100000 nM; and compounds having an activity designated as “E” provided an IC50>10000 nM.

HER2 INS YVMA = biological target: T1, HER2 INS YVMA (Homo sapiens, UniProt P04626, INS775YVMA); test: Lance Kinase Activity Assay, HER2 INS YVMA (Her2 Exon 20 INSYVMA Lance); assay type: biochemical; conditions: biochemical Lance assay
T1 construct: purchased DPF
How it was run: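 IC50 was fitted to sigmoidal curves of TR-FRET signal (665 and 615 nm emission after 340 nm excitation) from an Eu anti-phospho antibody binding the phosphorylated ULight peptide. The ATP-started reaction ran 1 h at RT and was then quenched with 10 mM EDTA plus antibody for a further 1 h. Compounds were tested as 8-point, 3-fold dilutions.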

[2] = Metabolic stability in mouse liver microsomes without cofactor NADPH; assay type: in vitro ADME; conditions: 3 μM test compound, mouse liver microsomes, without NADPH, 50 min, 37° C., LC-MS/MS
How it was run: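 Cofactor-free incubation: no NADPH added to mouse liver microsomes, with compound at 3 μM and 37° C. Remaining parent was quantified by LC-MS/MS at time points up to 50 minutes to track depletion.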

EGFR wt = EGFR wt (Homo sapiens, UniProt P00533); test: EGFR wt Lance assay; assay type: biochemical
Sequence of EGFR wt (P00533 25-1210): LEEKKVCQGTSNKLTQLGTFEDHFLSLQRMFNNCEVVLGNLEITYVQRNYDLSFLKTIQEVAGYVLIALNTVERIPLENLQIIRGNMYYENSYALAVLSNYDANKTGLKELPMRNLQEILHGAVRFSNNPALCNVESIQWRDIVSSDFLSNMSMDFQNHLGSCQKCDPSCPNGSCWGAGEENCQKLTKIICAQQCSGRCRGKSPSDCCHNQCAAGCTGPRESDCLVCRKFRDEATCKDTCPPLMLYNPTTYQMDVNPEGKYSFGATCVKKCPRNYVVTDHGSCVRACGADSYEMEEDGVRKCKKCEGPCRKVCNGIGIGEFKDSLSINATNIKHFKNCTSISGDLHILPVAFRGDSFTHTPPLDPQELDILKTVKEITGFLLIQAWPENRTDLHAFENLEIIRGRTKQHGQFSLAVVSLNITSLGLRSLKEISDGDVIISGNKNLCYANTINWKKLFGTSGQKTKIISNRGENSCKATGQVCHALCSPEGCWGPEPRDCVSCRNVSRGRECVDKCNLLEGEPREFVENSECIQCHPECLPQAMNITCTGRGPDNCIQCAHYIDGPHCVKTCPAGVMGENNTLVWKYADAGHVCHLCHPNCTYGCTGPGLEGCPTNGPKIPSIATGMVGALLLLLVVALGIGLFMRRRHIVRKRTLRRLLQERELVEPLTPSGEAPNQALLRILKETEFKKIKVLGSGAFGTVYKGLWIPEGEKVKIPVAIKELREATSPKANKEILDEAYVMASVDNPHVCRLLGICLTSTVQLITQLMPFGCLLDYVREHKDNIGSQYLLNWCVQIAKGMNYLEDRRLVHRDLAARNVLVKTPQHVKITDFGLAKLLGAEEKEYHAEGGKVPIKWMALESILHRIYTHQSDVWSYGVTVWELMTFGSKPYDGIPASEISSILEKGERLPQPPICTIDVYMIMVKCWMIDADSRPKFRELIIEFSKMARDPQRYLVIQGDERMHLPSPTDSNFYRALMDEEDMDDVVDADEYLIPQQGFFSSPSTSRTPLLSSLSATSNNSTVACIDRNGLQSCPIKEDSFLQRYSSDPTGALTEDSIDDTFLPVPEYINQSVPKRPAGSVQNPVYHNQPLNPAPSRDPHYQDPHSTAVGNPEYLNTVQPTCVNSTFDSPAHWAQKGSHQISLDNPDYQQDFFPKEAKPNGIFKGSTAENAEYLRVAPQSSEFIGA
Description: as §3

[3] = biological target: Her2 Exon 20 INSYVMA Ba/F3 (Homo sapiens, UniProt P04626, DUP772-775, cells depend on it); test: Her2 Exon 20 INSYVMA Ba/F3 CellTiter-Glo; assay type: cell-based; conditions: CellTiter-Glo, 72 h, read-out: Her2 Exon 20 INSYVMA Ba/F3 CTG IC50
Sequence of Her2 Exon 20 INSYVMA Ba/F3 (P04626 with tags, fused parts or gaps DUP772-775): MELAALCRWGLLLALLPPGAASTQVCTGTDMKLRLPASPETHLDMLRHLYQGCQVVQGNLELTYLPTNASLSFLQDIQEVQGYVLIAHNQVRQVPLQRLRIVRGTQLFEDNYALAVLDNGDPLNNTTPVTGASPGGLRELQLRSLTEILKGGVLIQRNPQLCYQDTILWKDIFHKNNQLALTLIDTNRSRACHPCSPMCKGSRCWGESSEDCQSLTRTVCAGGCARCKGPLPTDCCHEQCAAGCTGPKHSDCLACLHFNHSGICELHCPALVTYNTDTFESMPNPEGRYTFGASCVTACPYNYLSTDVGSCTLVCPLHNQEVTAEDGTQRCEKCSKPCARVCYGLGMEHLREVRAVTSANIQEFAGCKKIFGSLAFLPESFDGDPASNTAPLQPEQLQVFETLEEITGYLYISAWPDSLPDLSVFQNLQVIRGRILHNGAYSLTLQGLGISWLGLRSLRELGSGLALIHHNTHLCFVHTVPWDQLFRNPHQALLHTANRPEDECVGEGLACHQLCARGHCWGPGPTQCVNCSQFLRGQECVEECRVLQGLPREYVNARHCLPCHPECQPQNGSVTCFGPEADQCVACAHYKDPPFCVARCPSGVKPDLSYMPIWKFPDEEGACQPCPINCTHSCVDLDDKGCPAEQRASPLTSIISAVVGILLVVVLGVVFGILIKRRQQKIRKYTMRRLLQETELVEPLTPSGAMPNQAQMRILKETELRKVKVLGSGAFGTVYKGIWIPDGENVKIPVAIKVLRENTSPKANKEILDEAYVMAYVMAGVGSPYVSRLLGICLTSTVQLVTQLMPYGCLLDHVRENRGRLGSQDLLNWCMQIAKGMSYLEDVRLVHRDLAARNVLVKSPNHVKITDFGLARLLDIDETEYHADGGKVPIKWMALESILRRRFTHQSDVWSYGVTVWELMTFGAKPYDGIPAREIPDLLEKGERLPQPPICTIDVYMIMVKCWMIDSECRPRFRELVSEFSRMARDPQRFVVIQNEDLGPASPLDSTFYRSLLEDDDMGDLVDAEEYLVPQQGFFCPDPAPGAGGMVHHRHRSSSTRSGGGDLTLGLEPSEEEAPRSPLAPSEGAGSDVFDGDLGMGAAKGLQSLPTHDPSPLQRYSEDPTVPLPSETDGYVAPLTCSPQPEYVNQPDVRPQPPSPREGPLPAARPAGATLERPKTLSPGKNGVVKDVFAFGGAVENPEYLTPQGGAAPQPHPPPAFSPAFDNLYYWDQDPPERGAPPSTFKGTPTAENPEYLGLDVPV
How it was run: as §1

A431 = A431 CellTiter-Glo; assay type: cell-based; conditions: Homo sapiens, A-431; 72 h compound incubation; read-out: A431 CTG IC50
How it was run: as §2

H1975 = H1975 CellTiter-Glo; assay type: cell-based; conditions: Homo sapiens, NCI-H1975; 72 h compound incubation; read-out: H1975 CTG IC50
How it was run: as §2

Sequence of EGFR Exon 20 INSNPH Ba/F3 (P00533 with tags, fused parts or gaps DUP771-773): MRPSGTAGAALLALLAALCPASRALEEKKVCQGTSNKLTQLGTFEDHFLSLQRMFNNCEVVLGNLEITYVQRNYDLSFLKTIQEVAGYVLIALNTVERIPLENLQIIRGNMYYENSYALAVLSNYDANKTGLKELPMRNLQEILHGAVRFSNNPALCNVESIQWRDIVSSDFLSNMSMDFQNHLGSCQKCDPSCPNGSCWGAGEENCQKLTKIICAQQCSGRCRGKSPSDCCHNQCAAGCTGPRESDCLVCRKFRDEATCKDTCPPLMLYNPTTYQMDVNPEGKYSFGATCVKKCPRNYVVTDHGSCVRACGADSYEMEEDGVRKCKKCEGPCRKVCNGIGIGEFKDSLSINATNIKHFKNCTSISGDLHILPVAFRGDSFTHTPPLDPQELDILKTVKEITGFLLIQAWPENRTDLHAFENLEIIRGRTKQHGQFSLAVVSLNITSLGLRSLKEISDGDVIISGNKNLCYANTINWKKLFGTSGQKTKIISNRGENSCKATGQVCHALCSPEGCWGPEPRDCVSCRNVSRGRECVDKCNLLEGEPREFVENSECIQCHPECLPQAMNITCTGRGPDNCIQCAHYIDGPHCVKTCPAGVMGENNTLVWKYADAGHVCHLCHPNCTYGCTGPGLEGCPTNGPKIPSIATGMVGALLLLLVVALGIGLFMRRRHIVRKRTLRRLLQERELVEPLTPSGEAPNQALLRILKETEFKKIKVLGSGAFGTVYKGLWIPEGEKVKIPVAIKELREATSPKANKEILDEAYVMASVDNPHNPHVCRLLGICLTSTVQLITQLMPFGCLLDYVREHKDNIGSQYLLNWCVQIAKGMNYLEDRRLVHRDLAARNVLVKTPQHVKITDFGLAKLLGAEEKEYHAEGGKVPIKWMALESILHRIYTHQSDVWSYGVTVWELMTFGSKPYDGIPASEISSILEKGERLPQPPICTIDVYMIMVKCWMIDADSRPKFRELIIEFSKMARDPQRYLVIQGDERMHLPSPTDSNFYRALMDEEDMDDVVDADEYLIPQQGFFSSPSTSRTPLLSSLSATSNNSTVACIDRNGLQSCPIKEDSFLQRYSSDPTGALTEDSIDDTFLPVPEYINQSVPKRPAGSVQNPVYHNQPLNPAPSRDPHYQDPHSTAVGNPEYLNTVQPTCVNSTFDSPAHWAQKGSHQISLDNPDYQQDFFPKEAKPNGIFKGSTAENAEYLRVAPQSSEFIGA

Compound | GI50 [1] | IC50 (H1781) | IC50 (EGFR T790ML858R) | IC50 (HER2 INS YVMA) | Stability in presence of mouse liver microsomes without cofactor NADPH [% remaining after 50 min] [2] | IC50 (EGFR wt) | GI50 [3] | IC50 (A431) | IC50 (H1975)
C=CC(=O)Nc1cc(-c2c(-c3ccc(C4CCN(C)CC4)cc3)[nH]c3nccc(OC)c23)ccc1C [Example 73, N-(5-(4-methoxy-2-(4-(1-methylpiperidin-4-yl)phenyl)-1H-pyrrolo[2,3-b]pyridin-3-yl)-2-methylphenyl)acrylamide] | ≤ 100 nM | 100 to 500 nM | ≤ 100 nM | ≤ 100 nM | 99 % remaining after 50 min | ≤ 100 nM | ≤ 100 nM | 100 to 500 nM | ≤ 100 nM
C=CC(=O)N1CCc2ccc(-c3c(-c4ccc(N5CCN(C)CC5)c(F)c4)[nH]c4nccc(Cl)c34)cc21 [Example 57, 1-(6-(4-chloro-2-(3-fluoro-4-(4-methylpiperazin-1-yl)phenyl)-1H-pyrrolo[2,3-b]pyridin-3-yl)indolin-1-yl)prop-2-en-1-one] | 500 to 1000 nM | 1000 to 100000 nM | ≤ 100 nM | ≤ 100 nM | >99 % remaining after 50 min | ≤ 100 nM | 100 to 500 nM | 1000 to 100000 nM | 100 to 500 nM
C=CC(=O)Nc1cc(-c2c(-c3ccnc(N4CCN(C)CC4)c3)[nH]c3nccc(Cl)c23)ccc1C [Example 26, N-(5-(4-chloro-2-(2-(4-methylpiperazin-1-yl)pyridin-4-yl)-1H-pyrrolo[2,3-b]pyridin-3-yl)-2-methylphenyl)acrylamide] | 100 to 500 nM | 500 to 1000 nM | ≤ 100 nM | ≤ 100 nM | >99 % remaining after 50 min | ≤ 100 nM | 100 to 500 nM | 100 to 500 nM | ≤ 100 nM
C=CC(=O)N1CCc2ccc(-c3c(-c4ccc(N5CCN(C)CC5)cc4)[nH]c4nccc(Cl)c34)cc21 [Example 56, 1-(6-(4-chloro-2-(4-(4-methylpiperazin-1-yl)phenyl)-1H-pyrrolo[2,3-b]pyridin-3-yl)indolin-1-yl)prop-2-en-1-one] | 100 to 500 nM | 500 to 1000 nM | ≤ 100 nM | ≤ 100 nM | >99 % remaining after 50 min | ≤ 100 nM | 100 to 500 nM | 500 to 1000 nM | ≤ 100 nM
C=CC(=O)N1CCc2ccc(-c3c(-c4ccc(C5CCN(C)CC5)cc4)[nH]c4nccc(Cl)c34)cc21 [Example 55, 1-(6-(4-Chloro-2-(4-(1-methylpiperidin-4-yl)phenyl)-1H-pyrrolo[2,3-b]pyridin-3-yl)indolin-1-yl)prop-2-en-1-one 2,2,2-trifluoroacetate] | 500 to 1000 nM | 1000 to 100000 nM | ≤ 100 nM | ≤ 100 nM | >99 % remaining after 50 min | ≤ 100 nM | 500 to 1000 nM | 1000 to 100000 nM | ≤ 100 nM
C=CC(=O)Nc1cc(-c2c(-c3ccc(C4CCN(C)CC4)cc3)[nH]c3nccc(Cl)c23)ccc1C [Example 3, N-(5-(4-chloro-2-(4-(1-methylpiperidin-4-yl)phenyl)-1H-pyrrolo[2,3-b]pyridin-3-yl)-2-methylphenyl)acrylamide] | ≤ 100 nM | 100 to 500 nM | ≤ 100 nM | ≤ 100 nM | >99 % remaining after 50 min | ≤ 100 nM | ≤ 100 nM | 100 to 500 nM | ≤ 100 nM
C=CC(=O)Nc1cc(-c2c(-c3ccc(C4CCN(C)CC4)cc3)[nH]c3ncccc23)ccc1C [Example 79, N-(2-methyl-5-(2-(4-(1-methylpiperidin-4-yl)phenyl)-1H-pyrrolo[2,3-b]pyridin-3-yl)phenyl)acrylamide] | 100 to 500 nM | 500 to 1000 nM | ≤ 100 nM | ≤ 100 nM | >99 % remaining after 50 min | ≤ 100 nM | 100 to 500 nM | 100 to 500 nM | ≤ 100 nM
